The record followed here is patent US9089605B2, “Quinone derivatives, pharmaceutical compositions, and uses thereof” (Indiana University Research and Technology Corporation, priority 2007, dated 2015).

“And” between values parts separate entries of the source, which are not always exact repeats. Equal values may be shown once.

In one series the target is Ape1 (Homo sapiens, UniProt P27695). As to the kind of experiment: Enzymatic redox assay (EMSA, AP-1 DNA binding). The series is classed as biochemical. To be noted: for IC50: EMSA, reduced Ape1, oxidized nuclear extracts (Hey-C2 cells), AP-1 DNA probe; for activity compared with the original carboxylic acids: hydroxyethylamides of 1 and 43a. Background: Mobility shift assays separate free from complexed probe on a gel.
Sequence of Ape1 (P27695 whole entry): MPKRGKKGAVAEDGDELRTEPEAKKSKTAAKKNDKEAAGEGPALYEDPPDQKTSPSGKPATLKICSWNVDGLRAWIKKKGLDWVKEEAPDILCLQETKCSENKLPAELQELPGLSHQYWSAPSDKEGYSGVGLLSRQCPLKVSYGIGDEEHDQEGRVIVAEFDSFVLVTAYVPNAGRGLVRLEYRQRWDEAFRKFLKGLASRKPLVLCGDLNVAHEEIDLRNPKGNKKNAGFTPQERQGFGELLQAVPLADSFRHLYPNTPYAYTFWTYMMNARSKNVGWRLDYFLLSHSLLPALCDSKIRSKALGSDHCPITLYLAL

The test system of another series is cells. As to the kind of experiment: Growth inhibition assay (MTS). The series is classed as cell-based. The settings on record: for GI50: MTS, compound treatment 24 or 72 h, read-out: Cell Killing (GI50). On the procedure:
Growth inhibitory data was also collected for all the compounds tested in the redox assay. Following the procedure of Fishel et al, cells were aliquoted into 96 well plates at a concentration of 2-4,000 cells/well in triplicate and allowed to adhere overnight. Cells were then treated with compound for either 24 or 72 h. 3-(4-5-Dimethylthiazol-2-yl)-5-(3-carboxymethoxyphenyl)-2-(4-sulfophenyl)-2H-tetrazolium salt (MTS) was added to the cells following compound treatment and the cells were incubated for an additional 4 hours at 37° C. After incubation with MTS the plates were measured for absorbance at 490 nm. The values were standardized to wells containing media alone.

As to `CC1=C(/C=C(\C)C(=O)O)C(=O)c2ccccc2C1=O` [Compound 35a, (E)-3-(3-methyl-1,4-naphthoquinon-2-yl)-2-methylpropenoic acid], the melting point fell in the range of 195 to 196 °C. Besides, the IC50 on Ape1 stood at 15 µM. For the same compound, in the series with cells, the GI50 amounted to 45 µM.

Consider `C/C(=C\C1=C(Cl)C(=O)c2ccccc2C1=O)C(=O)NCCO` [Compound 73, (E)-N-(2-hydroxyethyl)-3-(3-chloro-1,4-dioxonaphthoquinon-2-yl)-2-methylpropenamide], for which the “activity compared with the original carboxylic acids” value at Ape1 is “comparable in activity to the original carboxylic acids”. Further, in the series on cells, the 50% growth inhibitory concentration (GI50) turned out to be 7.5 µM.

Regarding `CCCCCCCCC/C(=C\C1=C(C)C(=O)c2ccccc2C1=O)C(=O)O` [Compound 35c, (E)-3-(3-methyl-1,4-naphthoquinon-2-yl)-2-nonylpropenoic acid], the melting point was 64 to 66 °C.

`COC1=C(OC)C(=O)C(/C=C(\C)C(=O)O)=C(Cl)C1=O` [Compound 23, (E)-3-(2-chloro-4,5-dimethoxy-3,6-dioxocyclohexa-1,4-dienyl)-2-methylpropenoic acid] displayed a melting point of 183 to 185 °C. In addition, the IC50 on Ape1 was 2.5 µM. Moreover, the “cell-based activity superior to the methyl derivative 10b, factor” value in the series with cells (GI50 ratio) is 3. In the series with cells, the GI50 came out at 45 µM.

Regarding `C/C(=C/C1=C(Cl)C(=O)c2ccccc2C1=O)C(=O)O` [Compound Z-43a, (2Z)-3-(3-chloro-1,4-naphthoquinon-2-yl)-2-methylpropenoic acid], the melting point was 166 to 169 °C. The IC50 at Ape1 stood at 1.5 µM. Also, in the series with cells, the GI50 amounted to 30 µM.

Take `O=C(O)CCC1=C(Br)C(=O)c2ccccc2C1=O` [Compound 69a, 3-(3-Bromo-1,4-naphthoquinon-2-yl)-propionic acid]: the melting point was 156 to 157 °C. On Ape1, this compound came in with an IC50 of 5 µM. In addition, the GI50 in the series on cells came out at 15 µM.

`COC1=C(OC)C(=O)C(/C=C/C(=O)O)=C(C)C1=O` [Compound 10a, (E)-3-(4,5-dimethoxy-2-methyl-3,6-dioxocyclohexa-1,4-dienyl)-propenoic acid]: the IC50 at Ape1 amounted to 40 µM. Moreover, the GI50 with cells was 250 µM.

For the compound `COCC/C(=C\C1=C(Cl)C(=O)c2ccccc2C1=O)C(=O)O` [Compound 62c, (E)-3-(3-chloro-1,4-naphthoquinon-2-yl)-2-methoxyethylpropenoic acid], the melting point is 160 °C (dec.). The IC50 at Ape1 turned out to be 3 µM. For the same compound, in the series with cells, the concentration for 50% growth inhibition (GI50) was 30 µM.

Compound `C[C@@H]1NC(=O)N[C@@H]1CCCCCC(=O)NCCCCCCNC(=O)OC(C)(C)C` (hydrate or solvate) [Compound 111, N—(N′-tert-butoxycarbonyl-6-aminohexyl)-6-[(4R,5S)-5-methyl-imidazolidin-2-on-4-yl]hexanamide] yielded a melting point of 85 to 87 °C.

On to `C/C(=C\C1=C(F)C(=O)c2ccccc2C1=O)C(=O)O` [Compound 52, (E)-3-(3-fluoro-1,4-naphthoquinon-2-yl)-2-methylpropenoic acid], for which the IC50 on Ape1 is 4 µM. Also, in the series on cells, the GI50 was found to be 50 µM.

Take `COC1=C(/C=C(\C)C(=O)O)C(=O)c2ccccc2C1=O` [Compound 55, (E)-3-(3-methoxy-1,4-naphthoquinon-2-yl)-2-methylpropenoic acid]: the melting point was 205 °C (dec.). On Ape1, this compound returned an IC50 of 0.5 µM. In addition, the GI50 with cells worked out at 40 µM.

In turn, `COCC/C(=C\C1=C(C)C(=O)C(OC)=C(OC)C1=O)C(=O)O` [Compound 64, (E)-3-(4,5-dimethoxy-2-methyl-3,6-dioxocyclohexa-1,4-dienyl)-2-methoxyethylpropenoic acid] had a melting point of 104 to 106 °C. Also, the IC50 on Ape1 was found to be 10 µM. Moreover, in the series with cells, the GI50 was determined as 200 µM.

Compound `CSC1=C(/C=C(\C)C(=O)O)C(=O)c2ccccc2C1=O` [Compound 58, (E)-3-(3-methylsulfanyl-1,4-naphthoquinon-2-yl)-2-methylpropenoic acid] showed a melting point of 195 to 196 °C. On Ape1, this compound registered an IC50 of 1 µM. For the same compound, the GI50 in the series on cells is 30 µM.

Regarding `CCCCCCCCC/C(=C\C1=C(C)C(=O)C(OC)=C(OC)C1=O)C(=O)O` [Compound 1, (E)-3-(4,5-dimethoxy-2-methyl-3,6-dioxocyclohexa-1,4-dienyl)-2-nonylpropenoic acid, reference compound], in the series on cells, the GI50 came to 35 µM.

On to `C/C(=C\C1=C(Br)C(=O)c2ccccc2C1=O)C(=O)O` [Compound 39a, (E)-3-(3-bromo-1,4-naphthoquinon-2-yl)-2-methylpropenoic acid], for which the IC50 on Ape1 was determined as 2 µM. Further, the GI50 with cells turned out to be 12.5 µM.

For `COC(=O)/C(C)=C\C1=C(Cl)C(=O)c2ccccc2C1=O` [Compound Z-44a, Methyl (2Z)-3-(3-chloro-1,4-naphthoquinon-2-yl)-2-methylpropenoate], at Ape1, the IC50 turned out to be 2 µM. For the same compound, the GI50 in the series with cells was determined as 20 µM.

With `CC(CC1=C(Br)C(=O)c2ccccc2C1=O)C(=O)O` (racemic) [Compound 69b, (2R/S)-3-(3-bromo-1,4-naphthoquinon-2-yl)-2-methylpropionic acid], the IC50 at Ape1 is 5 µM. Moreover, the GI50 in the series with cells was 15 µM.

At Ape1, `C/C(=C\C1=CC(=O)c2ccccc2C1=O)C(=O)O` [Compound 30a, (E)-3-(1,4-naphthoquinon-2-yl)-2-methylpropenoic acid] registered a concentration for half-maximal inhibition (IC50) of 2.5 µM. Also, in the series on cells, the GI50 amounted to 20 µM.

With `CCC/C(=C\C1=C(C)C(=O)C(OC)=C(OC)C1=O)C(=O)O` [Compound 10d, (E)-3-(4,5-dimethoxy-2-methyl-3,6-dioxocyclohexa-1,4-dienyl)-2-propylpropenoic acid], the melting point lay within 95 to 99 °C.

Compound `CCCC/C(=C\C1=C(C)C(=O)c2ccccc2C1=O)C(=O)O` [Compound 35b, (E)-3-(3-methyl-1,4-naphthoquinon-2-yl)-2-butylpropenoic acid] registered a melting point of 119 to 121 °C. This compound had an IC50 at Ape1 of 25 µM. In the series with cells, the GI50 came out at 40 µM.

With `CCCC/C(=C\C1=C(C)C(=O)C(OC)=C(OC)C1=O)C(=O)O` [Compound 10e, (E)-3-(4,5-dimethoxy-2-methyl-3,6-dioxocyclohexa-1,4-dienyl)-2-butylpropenoic acid], the melting point is 54 to 55 °C. Also, the IC50 at Ape1 was 3 to 15 µM and 15 µM. Besides, the GI50 in the series with cells is 85 µM.

Turning to `CCCCCCCCC/C(=C\C1=C(C)C(=O)C(OC)=C(OC)C1=O)C(=O)NCCO` [Compound 72, (E)-N-(2-hydroxyethyl)-3-(3,4-dimethoxy-2-methyl-3,6-dioxocyclohexa-1,4-dienyl)-2-nonylpropenamide], at Ape1, the concentration for half-maximal inhibition (IC50) is 10 µM and the “activity compared with the original carboxylic acids” value was “comparable in activity to the original carboxylic acids”. Further, the GI50 in the series on cells came to 35 µM.

In turn, `CC1(C(=O)O)OC1C1=C(Cl)C(=O)c2ccccc2C1=O` (mixture of isomers) [Compound 71, 3-(3-chloro-1,4-naphthoquinon-2-yl)-2-epoxy-2-methylpropionic acid] showed an IC50 on Ape1 of 4 µM. Besides, the GI50 in the series with cells is 10 µM.

In turn, `COCC/C(=C\C1=C(Br)C(=O)c2ccccc2C1=O)C(=O)O` [Compound 62b, (E)-3-(3-bromo-1,4-naphthoquinon-2-yl)-2-methoxyethylpropenoic acid] had a melting point of 168 to 172 °C. Moreover, the IC50 on Ape1 worked out at 0.5 µM. The GI50 in the series on cells is 25 µM.

Consider `CCC/C(=C\C1=C(Br)C(=O)c2ccccc2C1=O)C(=O)O` [Compound 39b, (E)-3-(3-bromo-1,4-naphthoquinon-2-yl)-2-propylpropenoic acid], for which the melting point is 145 °C (dec.).

In the case of `C/C(=C\C1=C(Cl)C(=O)c2ccccc2C1=O)C(=O)O` [Compound 43a, (E)-3-(3-chloro-1,4-naphthoquinon-2-yl)-2-methylpropenoic acid], the melting point is 229 to 230 °C. For the same compound, at Ape1, the 50% inhibitory concentration (IC50) was 1 µM. Further, the GI50 with cells amounted to 15 µM.

Regarding `CC/C(=C\C1=C(C)C(=O)C(OC)=C(OC)C1=O)C(=O)O` [Compound 10c, (E)-3-(4,5-dimethoxy-2-methyl-3,6-dioxocyclohexa-1,4-dienyl)-2-ethylpropenoic acid], the melting point lay within 124 to 131 °C.

With `COC(=O)/C(C)=C/C1=C(Cl)C(=O)c2ccccc2C1=O` [Compound E-44a], the IC50 on Ape1 came to 1 µM. The GI50 with cells was 17.5 µM.

For the compound `CCC/C(=C\C1=C(Cl)C(=O)c2ccccc2C1=O)C(=O)O` [Compound 43b, (E)-3-(3-chloro-1,4-naphthoquinon-2-yl)-2-propylpropenoic acid], the melting point was 164 °C (dec.).

In turn, `CCC/C(=C\C1=CC(=O)c2ccccc2C1=O)C(=O)O` [Compound 30b, (E)-3-(1,4-naphthoquinon-2-yl)-2-propylpropenoic acid] gave a melting point of 156 to 160 °C.

Turning to `COCC/C(=C\C1=C(C)C(=O)c2ccccc2C1=O)C(=O)O` [Compound 62a, (E)-3-(3-methyl-1,4-naphthoquinon-2-yl)-2-methoxyethylpropenoic acid], the melting point lay in the range of 147 to 148 °C. Moreover, the IC50 at Ape1 is 10 µM. Also, in the series on cells, the GI50 worked out at 30 µM.

`COC1=C(OC)C(=O)C(/C=C(\C)C(=O)O)=C(C)C1=O` [Compound 10b, (E)-3-(4,5-dimethoxy-2-methyl-3,6-dioxocyclohexa-1,4-dienyl)-2-methylpropenoic acid] came in with a melting point of 134 to 136 °C. In addition, the IC50 at Ape1 is 3 to 15 µM and 3 µM. Moreover, the 50% growth inhibitory concentration (GI50) in the series on cells was determined as 130 µM.

Usually IC50 stands for the concentration needed to halve the response being measured. A higher IC50 goes with a need for much substance. The GI50 is the concentration that inhibits growth by half. For orientation: melting point means the temperature, or range, at which the solid turns liquid.
